Reference: patent publication US8188048B2 (priority 2006, dated 2012)

System: CCI-rats (chronic constriction injury of the sciatic nerve); tactile allodynia in ipsilateral hindpaw, antinociception in contralateral hindpaw
Parameters: species or system Sprague-Dawley rats
Settings: rat, in vivo

CN1CC[C@]23c4c5ccc(O)c4O[C@H]2[C@@H](O)C=C[C@H]3[C@H]1C5.Cl [Morphine, Morphine hydrochloride, reference compound]
ED10: 0.7 nmol
ED20: 3.5 nmol
time of peak antiallodynic and antinociceptive responses post-dosing: 0.5 to 0.75 h
dose-response at high i.t. doses (hydrochloride): pronounced sub-maximal ‘ceiling’ effect
